# Test results published in ChEMBL document CHEMBL1121705, “Synthesis and angiotensin-converting enzyme inhibitory activity of 3-(Mercaptomethyl)-2-oxo-1-pyrrolidineacetic acids and 3-(Mercaptomethyl)-2-oxo-1-piperidineacetic acids” (J Med Chem, 1981).
# Molecular target: Angiotensin-converting enzyme (Homo sapiens, UniProt P12821)
# Experiment: Concentration required for 50% inhibition of Angiotensin I converting enzyme; call rule not given here
# Assay type: protein assay, Cavia porcellus
# Sequence of Angiotensin-converting enzyme (P12821 whole entry): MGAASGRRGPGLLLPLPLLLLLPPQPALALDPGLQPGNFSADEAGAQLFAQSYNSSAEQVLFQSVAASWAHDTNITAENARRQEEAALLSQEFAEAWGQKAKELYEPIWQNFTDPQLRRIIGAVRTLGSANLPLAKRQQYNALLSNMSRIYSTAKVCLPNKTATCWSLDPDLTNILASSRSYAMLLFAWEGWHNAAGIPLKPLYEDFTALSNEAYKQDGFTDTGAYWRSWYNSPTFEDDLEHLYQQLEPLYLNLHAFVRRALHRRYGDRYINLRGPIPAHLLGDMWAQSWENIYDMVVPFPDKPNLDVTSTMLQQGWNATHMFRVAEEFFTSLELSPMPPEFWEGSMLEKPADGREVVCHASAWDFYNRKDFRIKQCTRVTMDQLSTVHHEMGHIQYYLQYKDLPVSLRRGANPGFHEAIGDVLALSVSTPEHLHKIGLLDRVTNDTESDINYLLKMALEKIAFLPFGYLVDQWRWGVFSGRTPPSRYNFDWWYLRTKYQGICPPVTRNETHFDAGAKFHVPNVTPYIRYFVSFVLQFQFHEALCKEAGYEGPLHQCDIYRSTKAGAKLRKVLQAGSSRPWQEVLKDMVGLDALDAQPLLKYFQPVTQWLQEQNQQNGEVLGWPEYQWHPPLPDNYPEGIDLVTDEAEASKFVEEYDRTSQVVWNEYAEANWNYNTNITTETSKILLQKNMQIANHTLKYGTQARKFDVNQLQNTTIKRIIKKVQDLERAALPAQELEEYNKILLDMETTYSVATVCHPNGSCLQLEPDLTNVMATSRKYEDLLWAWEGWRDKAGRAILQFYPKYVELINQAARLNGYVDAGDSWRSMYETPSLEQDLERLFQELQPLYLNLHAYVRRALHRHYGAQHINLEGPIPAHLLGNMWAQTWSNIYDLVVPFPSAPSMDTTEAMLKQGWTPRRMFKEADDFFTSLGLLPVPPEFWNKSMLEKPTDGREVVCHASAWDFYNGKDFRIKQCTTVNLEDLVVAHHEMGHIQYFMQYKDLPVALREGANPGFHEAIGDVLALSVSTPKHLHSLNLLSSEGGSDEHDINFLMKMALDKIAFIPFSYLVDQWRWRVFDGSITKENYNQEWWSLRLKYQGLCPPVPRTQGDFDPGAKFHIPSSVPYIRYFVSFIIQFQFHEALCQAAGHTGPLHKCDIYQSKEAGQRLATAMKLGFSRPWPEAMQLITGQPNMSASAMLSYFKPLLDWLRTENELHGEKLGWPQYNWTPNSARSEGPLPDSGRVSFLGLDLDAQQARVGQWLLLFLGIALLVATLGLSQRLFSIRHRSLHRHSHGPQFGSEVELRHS
structure (smiles),measurement,value
CC(=O)SCC1CCCN(CC(N)=O)C1=O (stereo unspecified),IC50,Not Active
